# Test results from PubChem BioAssay AID1963980 (Molecular Pharmacology Branch, DTP, NCI, 2024).
# Test system: 475296-252-R-J1-PDC spheroid viability
# Experiment: Anticancer human tumor 475296-252-R-J1-PDC patient-derived rectal carcinoma cell line growth inhibition [PI3K]
# Conditions: spheroids with HUVEC and MSC; for IC50: curve of first compound; for viability, T/C: stronger effect = lower value
# In short: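 Three cell types, namely tumor cells, endothelial cells and mesenchymal stem cells, formed each spheroid. Combinations with four PI3K inhibitors were screened at clinically achievable concentrations decreasing by half-log, and spheroid viability was recorded.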
# [1] = second compound 0.0316 µM, first compound 0.0316 µM
# [2] = second compound 0.0316 µM, first compound 0.1 µM
# [3] = second compound 0.0316 µM, first compound 0.316 µM
# [4] = second compound 0.0316 µM, first compound 1 µM
# [5] = second compound 0.0316 µM, first compound 3.16 µM
# [6] = second compound 0.0316 µM, first compound 10 µM
# [7] = second compound 0.1 µM, first compound 0.0316 µM
# [8] = second compound 0.1 µM, first compound 0.1 µM
# [9] = second compound 0.1 µM, first compound 0.316 µM
# [10] = second compound 0.1 µM, first compound 1 µM
# [11] = second compound 0.1 µM, first compound 3.16 µM
# [12] = second compound 0.1 µM, first compound 10 µM
# [13] = second compound 0.316 µM, first compound 0.0316 µM
# [14] = second compound 0.316 µM, first compound 0.1 µM
# [15] = second compound 0.316 µM, first compound 0.316 µM
# [16] = second compound 0.316 µM, first compound 1 µM
# [17] = second compound 0.316 µM, first compound 3.16 µM
# [18] = second compound 0.316 µM, first compound 10 µM
# [19] = second compound 1 µM, first compound 0.0316 µM
# [20] = second compound 1 µM, first compound 0.1 µM
# [21] = second compound 1 µM, first compound 0.316 µM
# [22] = second compound 1 µM, first compound 1 µM
# [23] = second compound 1 µM, first compound 3.16 µM
# [24] = second compound 1 µM, first compound 10 µM
# [25] = second compound 3.16 µM, first compound 0.0316 µM
# [26] = second compound 3.16 µM, first compound 0.1 µM
# [27] = second compound 3.16 µM, first compound 0.316 µM
# [28] = second compound 3.16 µM, first compound 1 µM
# [29] = second compound 3.16 µM, first compound 3.16 µM
# [30] = second compound 3.16 µM, first compound 10 µM
# [31] = second compound 10 µM, first compound 0.0316 µM
# [32] = second compound 10 µM, first compound 0.1 µM
# [33] = second compound 10 µM, first compound 0.316 µM
# [34] = second compound 10 µM, first compound 1 µM
# [35] = second compound 10 µM, first compound 3.16 µM
# [36] = second compound 10 µM, first compound 10 µM
# 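Also: spheroids exposed to agents for seven days before readout.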
smiles,measurement,setting,value
CC(C)NCC(C(=O)N1CCN(c2ncnc3c2C(C)CC3O)CC1)c1ccc(Cl)cc1 (stereo not drawn) + CC(Nc1ncnc2nc[nH]c12)c1cc2cccc(Cl)c2c(=O)n1-c1ccccc1,IC50,second compound 0.0316 µM,> 10 µM
same,IC50,second compound 0.1 µM,> 10 µM
same,IC50,second compound 0.316 µM,> 10 µM
same,IC50,second compound 1 µM,> 10 µM
same,IC50,second compound 3.16 µM,> 10 µM
same,IC50,second compound 10 µM,> 10 µM
same,"viability, T/C",[1],89.7%
same,"viability, T/C",[2],104%
same,"viability, T/C",[3],80.3%
same,"viability, T/C",[4],77.3%
same,"viability, T/C",[5],56.2%
same,"viability, T/C",[6],65.5%
same,"viability, T/C",[7],101%
same,"viability, T/C",[8],93.2%
same,"viability, T/C",[9],85.2%
same,"viability, T/C",[10],73.3%
same,"viability, T/C",[11],68.8%
same,"viability, T/C",[12],63.2%
same,"viability, T/C",[13],117%
same,"viability, T/C",[14],96.4%
same,"viability, T/C",[15],89.1%
same,"viability, T/C",[16],76%
same,"viability, T/C",[17],59.9%
same,"viability, T/C",[18],66.3%
same,"viability, T/C",[19],100%
same,"viability, T/C",[20],103%
same,"viability, T/C",[21],76%
same,"viability, T/C",[22],61.8%
same,"viability, T/C",[23],54.4%
same,"viability, T/C",[24],65.5%
same,"viability, T/C",[25],93.1%
same,"viability, T/C",[26],85.5%
same,"viability, T/C",[27],82.5%
same,"viability, T/C",[28],76.1%
same,"viability, T/C",[29],67.9%
same,"viability, T/C",[30],50.7%
same,"viability, T/C",[31],98%
same,"viability, T/C",[32],84.1%
same,"viability, T/C",[33],94.7%
same,"viability, T/C",[34],67.1%
same,"viability, T/C",[35],59.6%
same,"viability, T/C",[36],56%
CC1(C)CCC(CN2CCN(c3ccc(C(=O)NS(=O)(=O)c4ccc(NCC5CCOCC5)c([N+](=O)[O-])c4)c(Oc4cnc5[nH]ccc5c4)c3)CC2)=C(c2ccc(Cl)cc2)C1 + CC(Nc1ncnc2nc[nH]c12)c1cc2cccc(Cl)c2c(=O)n1-c1ccccc1,IC50,second compound 0.0316 µM,> 10 µM
same,IC50,second compound 0.1 µM,> 10 µM
same,IC50,second compound 0.316 µM,> 10 µM
same,IC50,second compound 1 µM,> 10 µM
same,IC50,second compound 3.16 µM,> 10 µM
same,IC50,second compound 10 µM,> 10 µM
same,"viability, T/C",[1],102%
same,"viability, T/C",[2],99.1%
same,"viability, T/C",[3],91.2%
same,"viability, T/C",[4],104%
same,"viability, T/C",[5],107%
same,"viability, T/C",[6],84.2%
same,"viability, T/C",[7],107%
same,"viability, T/C",[8],93.8%
same,"viability, T/C",[9],98.8%
same,"viability, T/C",[10],99.7%
same,"viability, T/C",[11],106%
same,"viability, T/C",[12],99%
same,"viability, T/C",[13],120%
same,"viability, T/C",[14],95.4%
same,"viability, T/C",[15],97.9%
same,"viability, T/C",[16],95%
same,"viability, T/C",[17],86.4%
same,"viability, T/C",[18],94.3%
same,"viability, T/C",[19],86.6%
same,"viability, T/C",[20],104%
same,"viability, T/C",[21],98.9%
same,"viability, T/C",[22],101%
same,"viability, T/C",[23],91.8%
same,"viability, T/C",[24],91.7%
same,"viability, T/C",[25],93.2%
same,"viability, T/C",[26],99.4%
same,"viability, T/C",[27],95.1%
same,"viability, T/C",[28],87.6%
same,"viability, T/C",[29],96.9%
same,"viability, T/C",[30],95.6%
same,"viability, T/C",[31],78.5%
same,"viability, T/C",[32],91.7%
same,"viability, T/C",[33],92%
same,"viability, T/C",[34],88.9%
same,"viability, T/C",[35],90.6%
same,"viability, T/C",[36],81.3%
C[C@@H](NC(=O)c1ncnc(N)c1Cl)c1ncc(C(=O)Nc2cc(C(F)(F)F)c(Cl)cn2)s1 + CC(Nc1ncnc2nc[nH]c12)c1cc2cccc(Cl)c2c(=O)n1-c1ccccc1,IC50,second compound 0.0316 µM,> 10 µM
same,IC50,second compound 0.1 µM,> 10 µM
same,IC50,second compound 0.316 µM,> 10 µM
same,IC50,second compound 1 µM,> 10 µM
same,IC50,second compound 3.16 µM,> 10 µM
same,IC50,second compound 10 µM,> 10 µM
same,"viability, T/C",[1],77.6%
same,"viability, T/C",[2],90.2%
same,"viability, T/C",[3],109%
same,"viability, T/C",[4],114%
same,"viability, T/C",[5],102%
same,"viability, T/C",[6],91.5%
same,"viability, T/C",[7],91%
same,"viability, T/C",[8],92.5%
same,"viability, T/C",[9],96.7%
same,"viability, T/C",[10],109%
same,"viability, T/C",[11],115%
same,"viability, T/C",[12],92%
same,"viability, T/C",[13],89.7%
same,"viability, T/C",[14],86.4%
same,"viability, T/C",[15],88.2%
same,"viability, T/C",[16],96.7%
same,"viability, T/C",[17],108%
same,"viability, T/C",[18],92.2%
same,"viability, T/C",[19],94.4%
same,"viability, T/C",[20],90.5%
same,"viability, T/C",[21],91%
same,"viability, T/C",[22],112%
same,"viability, T/C",[23],106%
same,"viability, T/C",[24],75.5%
same,"viability, T/C",[25],89.3%
same,"viability, T/C",[26],94.8%
same,"viability, T/C",[27],82%
same,"viability, T/C",[28],102%
same,"viability, T/C",[29],110%
same,"viability, T/C",[30],67.4%
same,"viability, T/C",[31],87.7%
same,"viability, T/C",[32],84.8%
same,"viability, T/C",[33],93.5%
same,"viability, T/C",[34],92.8%
same,"viability, T/C",[35],87.1%
same,"viability, T/C",[36],63.4%
Cn1ncnc1[C@H]1c2n[nH]c(=O)c3cc(F)cc(c23)N[C@@H]1c1ccc(F)cc1 + CC(Nc1ncnc2nc[nH]c12)c1cc2cccc(Cl)c2c(=O)n1-c1ccccc1,IC50,second compound 0.0316 µM,> 0.1 µM
same,IC50,second compound 0.1 µM,> 0.1 µM
same,IC50,second compound 0.316 µM,> 0.1 µM
same,IC50,second compound 1 µM,> 0.1 µM
same,IC50,second compound 3.16 µM,> 0.1 µM
same,IC50,second compound 10 µM,> 0.1 µM
same,"viability, T/C","second compound 0.0316 µM, first compound 0.000316 µM",94.1%
same,"viability, T/C","second compound 0.0316 µM, first compound 0.001 µM",94.3%
same,"viability, T/C","second compound 0.0316 µM, first compound 0.00316 µM",87.4%
same,"viability, T/C","second compound 0.0316 µM, first compound 0.01 µM",90.7%
same,"viability, T/C",[1],107%
same,"viability, T/C",[2],96.8%
same,"viability, T/C","second compound 0.1 µM, first compound 0.000316 µM",96.5%
same,"viability, T/C","second compound 0.1 µM, first compound 0.001 µM",87.5%
same,"viability, T/C","second compound 0.1 µM, first compound 0.00316 µM",96.8%
same,"viability, T/C","second compound 0.1 µM, first compound 0.01 µM",91.6%
same,"viability, T/C",[7],95.7%
same,"viability, T/C",[8],88.9%
same,"viability, T/C","second compound 0.316 µM, first compound 0.000316 µM",91%
same,"viability, T/C","second compound 0.316 µM, first compound 0.001 µM",85.8%
same,"viability, T/C","second compound 0.316 µM, first compound 0.00316 µM",98.9%
same,"viability, T/C","second compound 0.316 µM, first compound 0.01 µM",99.5%
same,"viability, T/C",[13],102%
same,"viability, T/C",[14],106%
same,"viability, T/C","second compound 1 µM, first compound 0.000316 µM",85.8%
same,"viability, T/C","second compound 1 µM, first compound 0.001 µM",103%
same,"viability, T/C","second compound 1 µM, first compound 0.00316 µM",104%
same,"viability, T/C","second compound 1 µM, first compound 0.01 µM",103%
same,"viability, T/C",[19],112%
same,"viability, T/C",[20],92.7%
same,"viability, T/C","second compound 3.16 µM, first compound 0.000316 µM",89.7%
same,"viability, T/C","second compound 3.16 µM, first compound 0.001 µM",86%
same,"viability, T/C","second compound 3.16 µM, first compound 0.00316 µM",91%
same,"viability, T/C","second compound 3.16 µM, first compound 0.01 µM",80.7%
same,"viability, T/C",[25],90.1%
same,"viability, T/C",[26],89.8%
same,"viability, T/C","second compound 10 µM, first compound 0.000316 µM",97%
same,"viability, T/C","second compound 10 µM, first compound 0.001 µM",85%
same,"viability, T/C","second compound 10 µM, first compound 0.00316 µM",85.4%
same,"viability, T/C","second compound 10 µM, first compound 0.01 µM",90.7%
same,"viability, T/C",[31],95.2%
same,"viability, T/C",[32],83.7%
